The results in this text go back to US11975003B2, “Methods and compositions for treatment of Zika virus infection” (priority 2016, dated 2024).

Like-named read-outs stand apart in the source and are kept apart here.

For data set [1], the system named is Zika virus Malaysia P 6-740. Description: CPE reduction assay (neutral red uptake). It counts as cell-based. The protocol: (§1) The compounds were administered at a range of concentrations up to 100 μg/ml. Compounds were prepared in MEM just prior to testing. Inhibition of virus replication was determined by microscopic examination of the infected cells for cytopathic effect, increase of neutral red (NR) dye uptake (colorimetric determination), and virus yield reduction. Uninfected cells treated with a compound were assayed as above for cytotoxicity control. The EC50, EC90 and SI (selectivity index) values were determined in Vero76, Huh7 and RD cells as analyzed by the neutral red uptake dye assay and virus yield reduction assays. The results are presented from 3 or more independent experiments (standard deviations not shown. Three Zika virus strains were used in this in vitro study, Malaysia strain P 6-740, Uganda strain MR-766 and Puerto Rico strain PRVABC-59. Cells were maintained under standard conditions.

In data set [2] the test system is Zika virus Puerto Rico PRVABC59. Description: CPE reduction assay (neutral red uptake). The class given is cell-based. The following applies: Puerto Rico PRVABC59. On the procedure:
as §1

For the next data set, the system named is Zika virus Uganda MR 766. Description: CPE reduction assay (neutral red uptake). The class given is cell-based. The protocol:
as §1

The test system of data set [3] is Zika virus (Malaysia, strain P 6-740). Description: Murine Zika virus model, re-challenge on day 28 (Example 4). The class given is in vivo, AG129 mice. The protocol: In this example, the surviving mice from the study described in Example 3 were subject to re-challenge on day 28 post-infection. On day 28, the only surviving mice in a treatment group were in group 1 (7/8 mice), the normal controls (group 8, 8/8 mice) and the virus sham treated groups (group 2, 8/8 mice and group 6, 8/8/mice). All surviving mice (with the exception of normal controls) were administered a challenge of Zika virus identical to the initial challenge.
No animals in Groups 1, 2 and 6 were administered additional doses of Compound A on day 28 prior to or after re-challenge. In this experiment, the sham infected mice of groups 2 and 6 served as the control groups to analyze the effects of treatment of Compound A on immune system activation (note that mice in group 2 received the same 300 mg/kg/day dose of Compound A as the mice in group 1 on day 0). The survival of the mice was monitored through day 60 post-initial infection.

Data set [4] in a line: Phase 1 study of intramuscular injection in healthy human subjects (Example 8). It counts as in vivo. The following applies: human, in vivo. The protocol: A phase 1 double-blind, placebo-controlled, dose-ranging study was conducted to evaluate the safety, tolerability, and pharmacokinetics of Compound A administered by intramuscular injection (IM) in healthy human subjects. The study was conducted in two parts. In part 1, subjects received a single dose of Compound A at doses from 0.3 mg/kg to 10 mg/kg via IM administration. Additionally, the effect of lidocaine administration (co-administered with Compound A at a dose of 4 mg/kg) on alleviation of pain associated with injection was also evaluated. In part 2, subjects received Compound A for 7 days (q.d.) at doses of 2.5 mg/kg/day, 5 mg/kg/day or 10 mg/kg/day via IM administration. 50 subjects received single doses of Compound A in part 1 (12 subjects received placebo) and 23 subjects received multiple doses of Compound A in part 2 (6 subjects received placebo). All planned cohorts were completed.
Eligible subjects were adults of either sex ages 18 to 50. […]
The plasma concentration time profile of Compound A was determined for each subject in part 2 (results expressed as ng/ml Compound A). Blood samples were taken on Day 1 prior to administration of the first dose and at 1, 2, 3, 4, 6, 8, 10, 12, 16 and 24 hours after administration of the first dose of Compound A and on Day 7 prior to administration of the last dose of Compound A and at 1, 2, 3, 4, 6, 8, 10, 12, 16, 24, 36, 48, 72 and 96 hours after administration of the last dose of Compound A. Plasma samples were obtained from the blood samples and the concentration of Compound A determined.

Turning to `Cl.Nc1ncnc2c([C@@H]3N[C@H](CO)[C@@H](O)[C@H]3O)c[nH]c12` [Compound A], the “CPE red. assay EC50” value in data set [1] (Huh-7 cells) worked out at 5.5 ± 0.1 µg/mL; in data set [1] (Vero76 cells), 11.5 ± 4.4 µg/mL; in data set [2] (Huh-7 cells), 4.7 ± 0.6 µg/mL; in data set [2] (RD cells), 4.7 ± 2.2 µg/mL; in data set [2] (Vero76 cells) it was 3.8 ± 2.5 µg/mL; in the data set on Zika virus Uganda MR 766 (Huh-7 cells), 5.7 ± 0.9 µg/mL. Further, the “CPE red. assay EC50” value with Zika virus Uganda MR 766 (RD cells) came out at 4.4 ± 1.3 µg/mL; in the data set with Zika virus Uganda MR 766 (Vero76 cells), 11.7 ± 4.7 µg/mL. For the same compound, the “re-challenged mice surviving at day 60” value in data set [3] (group 1 (300 mg/kg/day from day 0, 7 survivors), second Zika challenge day 28, no additional dosing) is on record as 7 mice. In data set [3] (group 2 (300 mg/kg/day from day 0, sham infected), no dosing at challenge), the “survival after first Zika challenge on day 28” value was “no survival was observed past day 51”. Further, the “clinically significant laboratory abnormalities” value in data set [4] was “no clinically significant laboratory abnormalities occurred”. For the same compound, the exposure vs dose entry in data set [4] is “dose-proportional and linear with increasing dose”. Also, the “plasma PK profile on co-administration of lidocaine” value in data set [4] (4 mg/kg) was “without altering the plasma PK profile”. The “plasma viremia through day 28 post-infection” value in the data set on Zika virus PRVABC-59 (Group 1: 200 mg/kg split dose day 0 (+90 min), 25 mg/kg b.i.d. days 1-9, IM, n=5) is listed as “did not develop detectable viremia”. Further, the “Zika virus RNA in CSF, saliva and urine” value with Zika virus PRVABC-59 (Group 1, FIG. 13A) is on record as “only sporadically detectable Zika virus RNA”; in the data set on Zika virus PRVABC-59 (Group 2, FIG. 13B) it was “only sporadically detectable Zika virus RNA”. Further, in the data set with Zika virus PRVABC-59 (Group 2: 200 mg/kg split dose day 0 only, IM), the “magnitude of viremia in viremic animals” value was “significantly reduced as compared to control”. The “animals with detectable plasma viremia” value in the data set on Zika virus PRVABC-59 (Group 2: 200 mg/kg split dose day 0 only, IM, n=5) is “only two animals from this group showing viremia”. The tolerability result in the data set with Zika virus PRVABC-59 (IM, Groups 1 and 2) was “well-tolerated”.
